This note sets out measurements from patent US10703760B2, “Morphic forms of marizomib and uses thereof” (Celgene International II Sàrl, priority 2016, dated 2020).

The data set in a line: Salt screen of marizomib. The data set is classed as physicochemical. To be noted: sulfonic acids and mineral acids. The procedure:
For crash cooling (CC), a solution of MRZ and coformer was prepared at elevated temperature in a given solvent mixture. The vial was capped and immediately placed in a refrigerator or freezer. For fast cooling (FC), solutions of MRZ and coformer were prepared at elevated temperatures in given solvents or solvent mixtures. The vial was capped and placed on a bench top at room temperature to quickly cool. For slow cooling (SC), a solution of MRZ and coformer was prepared at elevated temperature in a given solvent mixture. The vial was capped and left in a heating block at elevated temperature. The heater then was turned off for the sample to cool down naturally to room temperature. For slow evaporation (SE), solutions of MRZ and coformer were generated at ambient temperature in a given solvent or solvent mixture. The solutions were allowed to evaporate partially or to dryness from a loosely capped vial at ambient conditions. Slurry experiments were carried out by making saturated solutions containing excess solid. The slurries were agitated at ambient or elevated temperatures for a specified amount of time. The solids present were recovered via positive pressure filtration. Solvent assisted grinding experiments were carried out by mixing MRZ and coformer in an agate mortar and pestle. Aliquots of solvent were added and the mixture ground manually for specified amount of time. […]

For the compound `C[C@@]12OC(=O)[C@]1([C@@H](O)[C@@H]1C=CCCC1)NC(=O)[C@@H]2CCCl` [marizomib], the Crystalline salt formation result is given as “No crystalline salt of marizomib was produced”.
